From ChEMBL document CHEMBL4028802, “DILIrank: the largest reference drug list ranked by the risk for developing drug-induced liver injury in humans” (Drug Discov Today, 2016)

Key:
Homo sapiens [1] = organism: Homo sapiens; assay: Liver toxicity in human assessed as induction of drug-induced liver injury by measuring severity class index
Homo sapiens [2] = organism: Homo sapiens; assay: Liver toxicity in human assessed as induction of drug-induced liver injury by measuring verified drug-induced liver injury concern status
Wherever DILI severity class is given: key of the grades not given here.

| Compound | DILI_severity_class (Homo sapiens [1]) | DILI_Concern (Homo sapiens [2]) |
| --- | --- | --- |
| CC(COc1ccccc1)NC(C)C(O)c1ccc(O)cc1 (stereo not given) [ISOXSUPRINE] | 0 | No-Dili-Concern |
| COC(=O)C1=C(C)NC(C)=C(C(=O)OC(C)C)C1c1cccc2nonc12 (stereo not given) [ISRADIPINE] | 3 | Less-Dili-Concern |
| CCC(C)n1ncn(-c2ccc(N3CCN(c4ccc(OCC5COC(Cn6cncn6)(c6ccc(Cl)cc6Cl)O5)cc4)CC3)cc2)c1=O (stereo not given) [ITRACONAZOLE] | 8 | Most-Dili-Concern |
| C/C(=C\c1csc(C)n1)[C@@H]1C[C@@H]2O[C@]2(C)CCC[C@H](C)[C@H](O)[C@@H](C)C(=O)C(C)(C)[C@@H](O)CC(=O)N1 [IXABEPILONE] | 7 | Ambiguous-Dili-Concern |
| CNC1(c2ccccc2Cl)CCCCC1=O (stereo not given) [KETAMINE] | 0 | Less-Dili-Concern |
| CC(=O)N1CCN(c2ccc(OCC3COC(Cn4ccnc4)(c4ccc(Cl)cc4Cl)O3)cc2)CC1 (stereo not given) [KETOCONAZOLE] | 8 | Most-Dili-Concern |
| CC(C(=O)O)c1cccc(C(=O)c2ccccc2)c1 (stereo not given) [KETOPROFEN] | 3 | Less-Dili-Concern |
| O=C(c1ccccc1)c1ccc2n1CCC2C(=O)O (stereo not given) [KETOROLAC] | 3 | Less-Dili-Concern |
| CC(CCc1ccccc1)NCC(O)c1ccc(O)c(C(N)=O)c1 (stereo not given) [LABETALOL] | 8 | Most-Dili-Concern |
| COC[C@@H](NC(C)=O)C(=O)NCc1ccccc1 [LACOSAMIDE] | 3 | Ambiguous-Dili-Concern |
| OC[C@H]1O[C@@H](O[C@@H]2[C@@H](CO)O[C@](O)(CO)[C@H]2O)[C@H](O)[C@@H](O)[C@H]1O [LACTULOSE] | 0 | No-Dili-Concern |
| Nc1ccn([C@@H]2CS[C@H](CO)O2)c(=O)n1 [LAMIVUDINE] | 3 | Less-Dili-Concern |
| Nc1nnc(-c2cccc(Cl)c2Cl)c(N)n1 [LAMOTRIGINE] | 7 | Most-Dili-Concern |
| CC(=O)O.CC(C)[C@@H]1NC(=O)[C@H](CCCCN)NC(=O)[C@@H](Cc2c[nH]c3ccccc23)NC(=O)[C@H](Cc2ccc(O)cc2)NC(=O)[C@@H](NC(=O)[C@H](N)Cc2ccc3ccccc3c2)CSSC[C@@H](C(=O)N[C@H](C(N)=O)[C@@H](C)O)NC1=O [LANREOTIDE ACETATE] | 2 | Ambiguous-Dili-Concern |
| Cc1c(OCC(F)(F)F)ccnc1C[S+]([O-])c1nc2ccccc2[nH]1 (stereo not given) [LANSOPRAZOLE] | 3 | Less-Dili-Concern |
| CS(=O)(=O)CCNCc1ccc(-c2ccc3ncnc(Nc4ccc(OCc5cccc(F)c5)c(Cl)c4)c3c2)o1 [LAPATINIB] | 8 | Most-Dili-Concern |
| Cc1oncc1C(=O)Nc1ccc(C(F)(F)F)cc1 [LEFLUNOMIDE] | 8 | Most-Dili-Concern |
| Nc1cccc2c1CN(C1CCC(=O)NC1=O)C2=O (stereo not given) [LENALIDOMIDE] | 3 | Less-Dili-Concern |
| N#Cc1ccc(C(c2ccc(C#N)cc2)n2cncn2)cc1 [LETROZOLE] | 2 | Less-Dili-Concern |
| Nc1nc(=O)c2c([nH]1)NCC(CNc1ccc(C(=O)N[C@@H](CCC(=O)[O-])C(=O)[O-])cc1)N2C=O.[Ca+2] (stereo not given in full) [LEUCOVORIN CALCIUM] | 0 | No-Dili-Concern |

| Compound | DILI_severity_class (Homo sapiens [1]) | DILI_Concern (Homo sapiens [2]) |
| --- | --- | --- |
| Nc1nc2c(c(=O)[nH]1)N(C=O)C(CNc1ccc(C(=O)N[C@@H](CCC(=O)O)C(=O)O)cc1)CN2 (stereo not given in full) [LEUCOVORIN] | 0 | No-Dili-Concern |
| C[N+](C)(C)C[C@H](O)CC(=O)[O-] [LEVOCARNITINE] | 0 | No-Dili-Concern |
| Cl.Cl.O=C(O)COCCN1CCN([C@H](c2ccccc2)c2ccc(Cl)cc2)CC1 [LEVOCETIRIZINE DIHYDROCHLORIDE] | 4 | Less-Dili-Concern |
| C[C@H]1COc2c(N3CCN(C)CC3)c(F)cc3c(=O)c(C(=O)O)cn1c23.C[C@H]1COc2c(N3CCN(C)CC3)c(F)cc3c(=O)c(C(=O)O)cn1c23.O [LEVOFLOXACIN] | 8 | Most-Dili-Concern |
| CN1c2c(nc(N)[nH]c2=O)NC[C@@H]1CNc1ccc(C(=O)N[C@@H](CCC(=O)[O-])C(=O)[O-])cc1.[Ca+2] [LEVOMEFOLATE CALCIUM] | 0 | No-Dili-Concern |
| C#C[C@]1(O)CC[C@H]2[C@@H]3CCC4=CC(=O)CC[C@@H]4[C@H]3CC[C@@]21CC [LEVONORGESTREL] | 0 | No-Dili-Concern |
| CN1CC[C@]23CCCC[C@H]2[C@H]1Cc1ccc(O)cc13 [LEVORPHANOL] | 0 | No-Dili-Concern |
| N[C@@H](Cc1cc(I)c(Oc2cc(I)c(O)c(I)c2)c(I)c1)C(=O)O [LEVOTHYROXINE] | 3 | Less-Dili-Concern |
| CCN(CC)CC(=O)Nc1c(C)cccc1C [LIDOCAINE] | 0 | No-Dili-Concern |
| CCC[C@@H]1C[C@@H](C(=O)N[C@@H]([C@H]2O[C@H](SC)[C@H](O)[C@@H](O)[C@H]2O)[C@@H](C)O)N(C)C1 [LINCOMYCIN] | 3 | Ambiguous-Dili-Concern |
| CC(=O)NC[C@H]1CN(c2ccc(N3CCOCC3)c(F)c2)C(=O)O1 [LINEZOLID] | 3 | Less-Dili-Concern |
| N[C@@H](Cc1cc(I)c(Oc2ccc(O)c(I)c2)c(I)c1)C(=O)O [LIOTHYRONINE] | 0 | No-Dili-Concern |
| C[C@@H](Cc1ccccc1)NC(=O)[C@@H](N)CCCCN [LISDEXAMFETAMINE] | 3 | Ambiguous-Dili-Concern |
| NCCCC[C@H](N[C@@H](CCc1ccccc1)C(=O)O)C(=O)N1CCC[C@H]1C(=O)O [LISINOPRIL ANHYDROUS] | 3 | Less-Dili-Concern |
| O=NN(CCCl)C(=O)NC1CCCCC1 [LOMUSTINE] | 3 | Less-Dili-Concern |
| CN(C)C(=O)C(CCN1CCC(O)(c2ccc(Cl)cc2)CC1)(c1ccccc1)c1ccccc1 [LOPERAMIDE] | 0 | No-Dili-Concern |
| N[C@@H](C(=O)N[C@@H]1C(=O)N2C(C(=O)O)=C(Cl)CC[C@H]12)c1ccccc1 [LORACARBEF ANHYDROUS] | 3 | Less-Dili-Concern |
| O=C1Nc2ccc(Cl)cc2C(c2ccccc2Cl)=NC1O (stereo not given) [LORAZEPAM] | 3 | Ambiguous-Dili-Concern |
| CCCCc1nc(Cl)c(CO)n1Cc1ccc(-c2ccccc2-c2nn[nH]n2)cc1 [LOSARTAN] | 4 | Less-Dili-Concern |
| CN1CCN(C2=Nc3ccccc3Oc3ccc(Cl)cc32)CC1 [LOXAPINE] | 5 | Ambiguous-Dili-Concern |

| Compound | DILI_severity_class (Homo sapiens [1]) | DILI_Concern (Homo sapiens [2]) |
| --- | --- | --- |
| CCCCC(F)(F)[C@@]1(O)CC[C@H]2[C@@H](CC(=O)[C@@H]2CCCCCCC(=O)O)O1 [LUBIPROSTONE] | 0 | No-Dili-Concern |
| Cc1ccc(Nc2c(F)cccc2Cl)c(CC(=O)O)c1 [LUMIRACOXIB] | 8 | Most-Dili-Concern |
| OC[C@@H](O)[C@@H](O)[C@H](O)[C@H](O)CO [MANNITOL] | 0 | No-Dili-Concern |
| CNCCCC12CCC(c3ccccc31)c1ccccc12 [MAPROTILINE] | 5 | Ambiguous-Dili-Concern |
| Cc1nnc(C(C)C)n1[C@@H]1C[C@H]2CC[C@@H](C1)N2CC[C@H](NC(=O)C1CCC(F)(F)CC1)c1ccccc1 [MARAVIROC] | 3 | Most-Dili-Concern |
| CC(NN)c1ccccc1 (stereo not given) [MEBANAZINE] | 8 | Most-Dili-Concern |
| COC(=O)Nc1nc2ccc(C(=O)c3ccccc3)cc2[nH]1 [MEBENDAZOLE] | 3 | Less-Dili-Concern |
| CNC1(C)C2CCC(C2)C1(C)C (stereo not given) [MECAMYLAMINE] | 0 | No-Dili-Concern |
| Cc1cccc(CN2CCN(C(c3ccccc3)c3ccc(Cl)cc3)CC2)c1 (stereo not given) [MECLIZINE] | 0 | No-Dili-Concern |
| Cc1ccc(Cl)c(Nc2ccccc2C(=O)O)c1Cl [MECLOFENAMIC ACID] | 3 | Ambiguous-Dili-Concern |
| Cc1cccc(Nc2ccccc2C(=O)O)c1C [MEFENAMIC ACID] | 8 | Most-Dili-Concern |
| Cc1cnc(NC(=O)C2=C(O)c3ccccc3S(=O)(=O)N2C)s1 [MELOXICAM] | 3 | Less-Dili-Concern |
| CC12CC3CC(C)(C1)CC(N)(C3)C2 [MEMANTINE] | 7 | Less-Dili-Concern |
| CN1CCCC(CN2c3ccccc3Sc3ccccc32)C1 (stereo not given) [MEPAZINE] | 8 | Most-Dili-Concern |
| C[N+]1(C)CCCC(OC(=O)C(O)(c2ccccc2)c2ccccc2)C1 (stereo not given) [MEPENZOLATE] | 0 | No-Dili-Concern |
| CCOC(=O)C1(c2ccccc2)CCN(C)CC1 [MEPERIDINE] | 0 | No-Dili-Concern |
| CCC1(c2ccccc2)NC(=O)N(C)C1=O (stereo not given) [MEPHENYTOIN] | 5 | Ambiguous-Dili-Concern |
| Cc1cccc(C)c1NC(=O)C1CCCCN1C (stereo not given) [MEPIVACAINE] | 0 | No-Dili-Concern |
| CCCC(C)(COC(N)=O)COC(N)=O [MEPROBAMATE] | 0 | No-Dili-Concern |
| Sc1ncnc2nc[nH]c12 [MERCAPTOPURINE ANHYDROUS] | 8 | Most-Dili-Concern |
